Laboratory results taken from ChEMBL document CHEMBL5543077, “A further pocket or conformational plasticity by mapping COX-1 catalytic site through modified-mofezolac structure-inhibitory activity relationships and their antiplatelet behavior” (Eur J Med Chem, 2024).
pIC50: −log10 of the molar value.

Experiments:
[1] = biological target: T1, Prostaglandin G/H synthase 2 (Homo sapiens, UniProt P35354)
T1 sequence (P35354 whole entry): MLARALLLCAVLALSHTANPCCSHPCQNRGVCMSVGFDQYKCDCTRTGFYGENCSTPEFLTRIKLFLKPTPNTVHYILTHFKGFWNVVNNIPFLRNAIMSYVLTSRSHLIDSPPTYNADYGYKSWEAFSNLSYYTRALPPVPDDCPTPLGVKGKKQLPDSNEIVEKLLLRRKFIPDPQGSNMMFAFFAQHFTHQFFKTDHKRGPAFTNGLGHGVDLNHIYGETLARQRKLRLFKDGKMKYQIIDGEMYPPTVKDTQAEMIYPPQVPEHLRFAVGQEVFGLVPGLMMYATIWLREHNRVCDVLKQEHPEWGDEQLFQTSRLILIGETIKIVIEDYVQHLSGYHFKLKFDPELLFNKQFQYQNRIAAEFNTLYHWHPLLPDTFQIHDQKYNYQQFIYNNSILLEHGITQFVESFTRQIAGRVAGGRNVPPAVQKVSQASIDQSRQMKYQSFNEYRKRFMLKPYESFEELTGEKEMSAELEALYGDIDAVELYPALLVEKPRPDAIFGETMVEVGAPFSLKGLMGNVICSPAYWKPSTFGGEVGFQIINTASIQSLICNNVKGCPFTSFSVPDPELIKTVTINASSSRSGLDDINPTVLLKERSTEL

[2] = biological target: T2, Prostaglandin G/H synthase 1 (Ovis aries, UniProt P05979)
T2 sequence (P05979 whole entry): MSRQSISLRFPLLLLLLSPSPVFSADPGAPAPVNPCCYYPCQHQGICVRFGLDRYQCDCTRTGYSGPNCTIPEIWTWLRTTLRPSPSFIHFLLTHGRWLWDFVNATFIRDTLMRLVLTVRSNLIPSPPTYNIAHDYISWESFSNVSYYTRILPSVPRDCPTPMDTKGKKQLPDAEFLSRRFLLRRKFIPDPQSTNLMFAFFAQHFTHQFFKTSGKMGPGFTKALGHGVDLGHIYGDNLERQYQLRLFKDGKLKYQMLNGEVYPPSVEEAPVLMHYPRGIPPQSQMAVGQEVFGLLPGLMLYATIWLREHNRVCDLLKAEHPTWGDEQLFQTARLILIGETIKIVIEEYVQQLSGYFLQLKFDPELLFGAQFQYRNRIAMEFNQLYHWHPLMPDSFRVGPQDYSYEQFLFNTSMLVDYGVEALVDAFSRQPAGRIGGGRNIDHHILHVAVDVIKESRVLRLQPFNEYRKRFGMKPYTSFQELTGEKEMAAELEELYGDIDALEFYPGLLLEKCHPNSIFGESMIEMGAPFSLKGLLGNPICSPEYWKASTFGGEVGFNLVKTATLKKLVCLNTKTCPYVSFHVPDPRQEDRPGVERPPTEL
Description: Inhibition of ovine COX-1 by colorimetric assay

[3] = biological target: T1, Prostaglandin G/H synthase 2; remark: listed apart in the source
Description: Inhibition of human COX-2 by colorimetric assay

in vitro [4] = conditions: human, erythrocyte
Description: Hemolytic activity in human red blood cells assessed as hemolysis at 100 uM measured after 3 hrs by microplate reader assay relative to control

in vitro [5] = conditions: chlorocebus sabaeus, vero
Description: Cytotoxicity against African green monkey Vero cells assessed as cell viability at 100 uM measured after 24 hrs by MTT assay relative to control

Platelet = assay: cells; type: functional, cell-based; conditions: Homo sapiens, 2 min
Description: Antiplatelet activity in human platelets assessed as inhibition of arachidonic acid-induced platelet aggregation measured after 2 mins by turbidimetric analysis

[6] = biological target: T1, Prostaglandin G/H synthase 2; remark: listed apart in the source
Description: Inhibition of recombinant human COX-2 measured after 5 mins by absorbance based analysis

[7] = biological target: T2, Prostaglandin G/H synthase 1; remark: listed apart in the source
Description: Inhibition of ovine COX-1

[8] = biological target: T2, Prostaglandin G/H synthase 1; remark: listed apart in the source
Description: Inhibition of ovine COX-1 measured after 5 mins by absorbance based analysis

Structure (SMILES)	pIC50 [2]	pIC50 [3]	further results
Cc1onc(-c2ccc(Cl)o2)c1-c1ccccc1	–	–	pIC50 [1]: < 4.00
CCCOc1ccc(-c2c(-c3ccc(OC)cc3)noc2C)cc1	5.89	< 4.30	hemolysis at 3 h, 100 µM (in vitro [4]): 0%
CCCOc1ccc(-c2noc(CC(=O)O)c2-c2ccc(OCCC)cc2)cc1	< 4.30	5.44	–
CCOc1ccc(-c2noc(C)c2-c2ccc(OCC)cc2)cc1	6.64	< 4.30	viability at 24 h, 100 µM (in vitro [5]): > 70%; pIC50 (Platelet): 6.00; hemolysis at 3 h, 100 µM (in vitro [4]): 0%
Cc1onc(-c2ccc(OC(C)(C)C)cc2)c1-c1ccc(OC(C)(C)C)cc1	< 4.30	< 4.30	–
CCCCOc1ccc(-c2noc(C)c2-c2ccc(OCCCC)cc2)cc1	< 4.30	< 4.30	–
CCCOc1ccc(-c2c(-c3ccc(OC)cc3)noc2CC(=O)O)cc1	7.10	5.16	viability at 24 h, 100 µM (in vitro [5]): > 70%; pIC50 (Platelet): 4.14; hemolysis at 3 h, 100 µM (in vitro [4]): 0%
O=C(O)Cc1onc(-c2ccc(OCc3ccccc3)cc2)c1-c1ccc(OCc2ccccc2)cc1	< 4.30	< 4.30	–
CC(=O)Oc1ccccc1C(=O)O [ASPIRIN]	–	–	pIC50 (Platelet): 4.44
Cc1onc(-c2ccc(OCc3ccccc3)cc2)c1-c1ccc(OCc2ccccc2)cc1	< 4.30	< 4.30	–
C=CCc1cccc(-c2nc(-c3ccccc3Cl)c(-c3ccccc3Cl)[nH]2)c1OC(=O)COC	–	–	pIC50 [6]: < 4.00
COc1ccc(-c2noc(CC(=O)O)c2-c2ccc(OC(C)(C)C)cc2)cc1	< 4.30	< 4.30	–
CC(C)(C)Oc1ccc(-c2noc(CC(=O)O)c2-c2ccc(OC(C)(C)C)cc2)cc1	< 4.30	< 4.30	–
CCOc1ccc(-c2noc(CC(=O)O)c2-c2ccc(OCC)cc2)cc1	6.92	< 4.30	viability at 24 h, 100 µM (in vitro [5]): > 70%; pIC50 (Platelet): 6.15; hemolysis at 3 h, 100 µM (in vitro [4]): 0%
CCCOc1ccc(-c2noc(C)c2-c2ccc(OCCC)cc2)cc1	< 4.30	< 4.30	–
COc1ccc(-c2noc(CC(=O)O)c2-c2ccc(OCc3ccccc3)cc2)cc1	6.35	< 4.30	viability at 24 h, 100 µM (in vitro [5]): > 70%; pIC50 (Platelet): < 4.00; hemolysis at 3 h, 100 µM (in vitro [4]): 0%

Structure (SMILES)	pIC50 [2]	pIC50 [3]	further results
COc1ccc(-c2noc(C)c2-c2ccc(Oc3ccccc3)cc2)cc1	< 4.30	< 4.30	–
CCc1onc(-c2ccccc2)c1-c1ccccc1	–	–	pIC50 [1]: < 5.83; pIC50 [7]: 7.30
COc1ccc(-c2nc(C(=O)N3CCN(C)CC3)sc2-c2ccc(OC)cc2)cc1 [FR-122047]	–	–	pIC50 [7]: 7.55
CCCCOc1ccc(-c2noc(CC(=O)O)c2-c2ccc(OCCCC)cc2)cc1	7.28	< 4.30	viability at 24 h, 100 µM (in vitro [5]): > 70%; pIC50 (Platelet): < 4.00; hemolysis at 3 h, 100 µM (in vitro [4]): 0%
CCCCOc1ccc(-c2c(-c3ccc(OC)cc3)noc2C)cc1	< 4.30	< 4.30	–
O=C(O)Cc1onc(-c2ccc(Oc3ccccc3)cc2)c1-c1ccc(Oc2ccccc2)cc1	< 4.30	< 4.30	–
CCCCOc1ccc(-c2c(-c3ccc(OC)cc3)noc2CC(=O)O)cc1	6.49	6.35	–
Cc1onc(-c2ccc(Oc3ccccc3)cc2)c1-c1ccc(Oc2ccccc2)cc1	< 4.30	< 4.30	–
CCOc1ccc(N)cc1C(=O)Nc1cccc(C(F)(F)F)c1	–	–	pIC50 [1]: < 4.00; pIC50 [7]: 5.49
CCOc1ccc(-c2c(-c3ccc(OC)cc3)noc2CC(=O)O)cc1	6.92	< 4.30	viability at 24 h, 100 µM (in vitro [5]): > 70%; pIC50 (Platelet): 4.53; hemolysis at 3 h, 100 µM (in vitro [4]): 0%
CCOc1ccc(-c2c(-c3ccc(OC)cc3)noc2C)cc1	7.34	< 4.30	viability at 24 h, 100 µM (in vitro [5]): 64%; pIC50 (Platelet): 5.60
Cc1onc(-c2ccccc2)c1-c1ccccc1	–	–	pIC50 [7]: 7.05
COc1ccc(-c2noc(C)c2-c2ccc(OC(C)(C)C)cc2)cc1	< 4.30	< 4.30	–
COc1ccc(-c2noc(C)c2-c2ccc(OCc3ccccc3)cc2)cc1	< 4.30	< 4.30	–
COc1ccc(-c2noc(CC(=O)O)c2-c2ccc(Oc3ccccc3)cc2)cc1	< 4.30	< 4.30	–
C=CCc1cccc(-c2nc(-c3ccccc3Cl)c(-c3ccccc3Cl)[nH]2)c1OC(C)=O	–	–	pIC50 [6]: < 4.00; pIC50 [8]: < 4.00
